For assay [1], the target named is T1, SFRP-1 (Homo sapiens, UniProt Q8N474).
T1 sequence (Q8N474 32-314): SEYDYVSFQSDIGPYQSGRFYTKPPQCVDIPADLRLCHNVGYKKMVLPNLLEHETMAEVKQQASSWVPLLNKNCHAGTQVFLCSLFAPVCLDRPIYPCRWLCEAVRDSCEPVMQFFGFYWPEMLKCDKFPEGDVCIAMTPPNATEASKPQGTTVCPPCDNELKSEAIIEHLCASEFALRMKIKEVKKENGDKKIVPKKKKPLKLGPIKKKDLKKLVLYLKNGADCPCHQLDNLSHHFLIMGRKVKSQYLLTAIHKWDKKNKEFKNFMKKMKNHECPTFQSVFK
As to the kind of experiment: Fluorescence polarization binding assay (competitive displacement of a probe compound from SFRP-1).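 Note: test compound competes with a fluorescent probe held by SFRP-1, seen as a drop in probe anisotropy after incubation in darkness, with anisotropy as function of rising compound dose.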 Conditions: fluorescence anisotropy, 45 nM SFRP-1, 20 nM probe. Background: Fluorescence polarisation rises when a labelled molecule tumbles more slowly, as on binding a larger partner.

Assay [2] has as its target T1, SFRP-1. As to the kind of experiment: Cell-based assay for in vitro measurement of SFRP-1/SARP2 antagonist activity (U2OS cells co-transfected with 16x TCF-tk-Luciferase reporter, Wnt and hSFRP-1).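 Note: U2OS cells co-transfected with a TCF-tk luciferase reporter, a Wnt vector, hSFRP-1 or empty vector and CMV-βgal, luciferase luminescence read in cell lysates alongside βgal activity.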 As to conditions: U2OS, single dose, luciferase reporter.
[3] abbreviates: read-out: Fold Induction with SFRP-1, Conc 15 μM, fold induction over SFRP-1 control, cells with SFRP-1.
The mark [4] stands for this setting: read-out: Fold Induction without SFRP-1, Conc 15 μM, cells without SFRP-1 (specificity control).

Data on 24 compounds can be found in patent publication US20060276464A1, “Diarylsulfone sulfonamides and use thereof” (Wyeth, priority 2005, published 2006).

The structures appear in SMILES notation. Values joined by “and” are separate entries in the source; they are usually repeats but may differ in a detail not shown here. Identical values can stand only once. Like-named read-outs stand apart in the source and are kept apart here.

As a reminder, the IC50 is the concentration that inhibits the measured activity by half. A lower IC50 goes with inhibition by little substance. Regarding `CCc1nccn1CCNS(=O)(=O)c1cc(S(=O)(=O)c2ccc(F)cc2)ccc1C(C)C` [Example 584, N-[2-(2-ethyl-1H-imidazol-1-yl)ethyl]-5-[(4-fluorophenyl)sulfonyl]-2-isopropylbenzenesulfonamide], the IC50 at SFRP-1 [1] worked out at 500 nM. Besides, the values for the fold induction at 15 µM on SFRP-1 [2] (setting [3]) and on SFRP-1 [2] (setting [4]) were 3.4 and 1.1, respectively.
`CC(=O)N1CCC(NS(=O)(=O)c2cc(S(=O)(=O)c3ccc(F)cc3)ccc2C)CC1` [Example 585, N-(1-acetylpiperidin-4-yl)-5-[(4-fluorophenyl)sulfonyl]-2-methylbenzenesulfonamide] came in with an IC50 at SFRP-1 [1] of 8000 nM. Besides, the fold induction at 15 µM on SFRP-1 [2] (setting [3]) came out at 2.7; on SFRP-1 [2] (setting [4]), 1.1.
The like results for `Cc1ccc(S(=O)(=O)c2ccc(F)cc2)cc1S(=O)(=O)NC1CCN(C(=O)c2ccc(C#N)cc2)CC1` [Example 586, N-[1-(4-cyanobenzoyl)piperidin-4-yl]-5-[(4-fluorophenyl)sulfonyl]-2-methylbenzenesulfonamide] were, in that order, 2400 nM, 1.9 and 1.1.
At SFRP-1 [1], `Cc1ccc(S(=O)(=O)c2ccc(F)cc2)cc1S(=O)(=O)NC1CCN(C(=O)N(C)C)CC1` [Example 587, 4-[({5-[(4-fluorophenyl)sulfonyl]-2-methylphenyl}sulfonyl)amino]-N,N-dimethylpiperidine-1-carboxamide] showed an IC50 of 5000 nM. The fold induction at 15 µM at SFRP-1 [2] (setting [3]) and at SFRP-1 [2] (setting [4]) was 1.2 throughout.
Turning to `CC(C)c1ccc(S(=O)(=O)c2ccc(F)cc2)cc1S(=O)(=O)NCCn1ccnc1C(C)C` [Example 588, 5-[(4-fluorophenyl)sulfonyl]-2-isopropyl-N-[2-(2-isopropyl-1H-imidazol-1-yl)ethyl]benzenesulfonamide], the IC50 on SFRP-1 [1] stood at 400 nM. In addition, the fold induction at 15 µM turned out to be 3.6 at SFRP-1 [2] (setting [3]) and 1.7 on SFRP-1 [2] (setting [4]).
Regarding `COCC(=O)N1CCC(NS(=O)(=O)c2cc(S(=O)(=O)c3ccc(F)cc3)ccc2C)CC1` [Example 589, 5-[(4-fluorophenyl)sulfonyl]-N-[1-(methoxyacetyl)piperidin-4-yl]-2-methylbenzenesulfonamide], at SFRP-1 [1], the half-inhibitory concentration (IC50) was found to be 4000 nM. For the same compound, the figures for the fold induction at 15 µM at SFRP-1 [2] (setting [3]) and on SFRP-1 [2] (setting [4]) were 2.6 and 1.3, respectively.
On to `CC(C)c1ccc([S@+]([O-])c2ccccc2)cc1S(=O)(=O)NCCc1ccccn1` [Example 590, 2-isopropyl-5-[(R)-phenylsulfinyl]-N-(2-pyridin-2-ylethyl)benzenesulfonamide], for which the IC50 on SFRP-1 [1] was 2000 nM and 2500 nM. The fold induction at 15 µM on SFRP-1 [2] (setting [3]) was found to be 2.9; at SFRP-1 [2] (setting [4]), 1.
As for `CC(C)c1ccc([S@@+]([O-])c2ccccc2)cc1S(=O)(=O)NCCc1ccccn1` [Example 591, 2-isopropyl-5-[(S)-phenylsulfinyl]-N-(2-pyridin-2-ylethyl)benzenesulfonamide], the IC50 on SFRP-1 [1] was 5000 nM and 6000 nM. The figures for the fold induction at 15 µM on SFRP-1 [2] (setting [3]) and on SFRP-1 [2] (setting [4]) were 3.1 and 1.3, respectively.
At SFRP-1 [1], `O=S(=O)(NCCc1ccccn1)c1cc(S(=O)(=O)c2ccccc2)ccc1Br` [Example 592, 2-bromo-5-(phenylsulfonyl)-N-(2-pyridin-2-ylethyl)benzenesulfonamide] returned an IC50 of 1000 nM. Moreover, the results for the fold induction at 15 µM on SFRP-1 [2] (setting [3]) and on SFRP-1 [2] (setting [4]) were 3.1 and 1.1, respectively.
As for `Cc1c(C#N)cccc1S(=O)(=O)c1ccc(C(C)C)c(S(=O)(=O)NCCc2ccccn2)c1` [Example 593, 5-[(3-cyano-2-methylphenyl)sulfonyl]-2-isopropyl-N-(2-pyridin-2-ylethyl)benzenesulfonamide], at SFRP-1 [1], the IC50 stood at 900 nM. The fold induction at 15 µM at SFRP-1 [2] (setting [3]) was 2; at SFRP-1 [2] (setting [4]), 1.1.
As to `CC(=O)c1cccc(S(=O)(=O)c2ccc(C(C)C)c(S(=O)(=O)NCCc3ccccn3)c2)c1C` [Example 594, 5-[(3-acetyl-2-methylphenyl)sulfonyl]-2-isopropyl-N-(2-pyridin-2-ylethyl)benzenesulfonamide], the IC50 at SFRP-1 [1] is 4000 nM. The fold induction at 15 µM on SFRP-1 [2] (setting [3]) came out at 2.3; at SFRP-1 [2] (setting [4]), 1.
On SFRP-1 [1], `CC(C)c1ccc(S(=O)(=O)c2ccc(F)c(Cl)c2)cc1S(=O)(=O)NCCc1ccccn1` [Example 595, 5-[(3-chloro-4-fluorophenyl)sulfonyl]-2-isopropyl-N-(2-pyridin-2-ylethyl)benzenesulfonamide] gave a concentration for half-maximal inhibition (IC50) of 1200 nM. Moreover, the fold induction at 15 µM at SFRP-1 [2] (setting [3]) was 3.4; on SFRP-1 [2] (setting [4]) it was 1.4.
As to `Cc1cc(F)ccc1S(=O)(=O)c1ccc(C(C)C)c(S(=O)(=O)NCCc2ccccn2)c1` [Example 596, 5-[(4-fluoro-2-methylphenyl)sulfonyl]-2-isopropyl-N-(2-pyridin-2-ylethyl)benzenesulfonamide], at SFRP-1 [1], the IC50 is 1600 nM. The fold induction at 15 µM on SFRP-1 [2] (setting [3]) turned out to be 4.2; on SFRP-1 [2] (setting [4]), 1.3.
With `CC(C)c1ccc(S(=O)(=O)c2ccc3c(ccn3C)c2)cc1S(=O)(=O)NCCc1ccccn1` [Example 597, 2-isopropyl-5-[(1-methyl-1H-indol-5-yl)sulfonyl]-N-(2-pyridin-2-ylethyl)benzenesulfonamide], the IC50 on SFRP-1 [1] was determined as 400 nM. Further, the fold induction at 15 µM was 3.7 on SFRP-1 [2] (setting [3]) and 1.3 on SFRP-1 [2] (setting [4]).
The like results for `COc1cccc(S(=O)(=O)c2ccc(C(C)C)c(S(=O)(=O)NC3CCOCC3)c2)c1` [Example 598, 2-isopropyl-5-[(3-methoxyphenyl)sulfonyl]-N-(tetrahydro-2H-pyran-4-yl)benzenesulfonamide] were, in that order, 900 nM, 3.6 and 1.4.
Consider `CNc1ccc(S(=O)(=O)c2ccc(C(C)C)c(S(=O)(=O)NCCc3ccccn3)c2)c(C)c1` [Example 599, 2-isopropyl-5-{[2-methyl-4-(methylamino)phenyl]sulfonyl}-N-(2-pyridin-2-ylethyl)benzenesulfonamide], for which the IC50 at SFRP-1 [1] worked out at 600 nM. The fold induction at 15 µM at SFRP-1 [2] (setting [3]) was found to be 4.2; at SFRP-1 [2] (setting [4]), 1.4.
With `Cc1cc(N(C)C)ccc1S(=O)(=O)c1ccc(C(C)C)c(S(=O)(=O)NCCc2ccccn2)c1` [Example 600, 5-{[4-(dimethylamino)-2-methylphenyl]sulfonyl}-2-isopropyl-N-(2-pyridin-2-ylethyl)benzenesulfonamide], the IC50 at SFRP-1 [1] was determined as 2000 nM. Moreover, the fold induction at 15 µM at SFRP-1 [2] (setting [3]) is 3; at SFRP-1 [2] (setting [4]), 1.1.
On the same counts, the results for `Cc1ccc(S(=O)(=O)c2ccc(F)cc2)cc1S(=O)(=O)NC1CCN(C(=O)N2CCOCC2)CC1` [Example 603, 5-[(4-fluorophenyl)sulfonyl]-2-methyl-N-[1-(morpholin-4-ylcarbonyl)piperidin-4-yl]benzenesulfonamide] are 8000 nM, 2.4 and 0.9.
The like results for `Cc1cccc(S(=O)(=O)c2ccc(Cl)c(S(=O)(=O)NC3CCOCC3)c2)c1` [Example 604, 2-chloro-5-[(3-methylphenyl)sulfonyl]-N-(tetrahydro-2H-pyran-4-yl)benzenesulfonamide] were, in that order, 7000 nM, 2.2 and 1.1.
`CNc1ccc(S(=O)(=O)c2ccc(C(C)C)c(S(=O)(=O)NCCc3ccccn3)c2)cc1Cl` [Example 605, 5-{[3-chloro-4-(methylamino)phenyl]sulfonyl}-2-isopropyl-N-(2-pyridin-2-ylethyl)benzenesulfonamide]: the 50% inhibitory concentration (IC50) on SFRP-1 [1] came out at 600 nM. The fold induction at 15 µM is 3.2 on SFRP-1 [2] (setting [3]) and 1.1 on SFRP-1 [2] (setting [4]).
On the same counts, the results for `COc1cccc(S(=O)(=O)c2ccc(Cl)c(S(=O)(=O)NC3CCOCC3)c2)c1` [Example 606, 2-chloro-5-[(3-methoxyphenyl)sulfonyl]-N-(tetrahydro-2H-pyran-4-yl)benzenesulfonamide] are 8000 nM, 1.9 and 1.
For the compound `Cn1ccc2cc(S(=O)(=O)c3ccc(Cl)c(S(=O)(=O)NC4CCOCC4)c3)ccc21` [Example 607, 2-chloro-5-[(1-methyl-1H-indol-5-yl)sulfonyl]-N-(tetrahydro-2H-pyran-4-yl)benzenesulfonamide], the IC50 at SFRP-1 [1] amounted to 2000 nM. Also, the fold induction at 15 µM stood at 2.3 at SFRP-1 [2] (setting [3]) and 1.1 on SFRP-1 [2] (setting [4]).
On the same counts, the results for `CC(C)c1ccc(S(=O)(=O)c2ccc(N3CCN(C(=O)OC(C)(C)C)CC3)cc2)cc1S(=O)(=O)NC1CCOCC1` [Example 625, tert-butyl 4-[4-({4-isopropyl-3-[(tetrahydro-2H-pyran-4-ylamino)sulfonyl]phenyl}sulfonyl)phenyl]piperazine-1-carboxylate] are 3000 nM, 2.2 and 1.1.
On the same counts, the results for `CC(C)c1ccc(S(=O)(=O)c2ccc(N3C[C@@H](C)N[C@@H](C)C3)cc2)cc1S(=O)(=O)NC1CCOCC1` [Example 626, 5-({4-cis-3,5-dimethylpiperazin-1-ylphenyl}sulfonyl)-2-isopropyl-N-(tetrahydro-2H-pyran-4-yl)benzenesulfonamide] are 4000 nM, 2.9 and 1.1.
